Measured values from patent publication US12173322B2, “Genome-edited induced pluripotent stem cells, and cells derived therefrom, and uses thereof” (priority 2020, dated 2024).
Read-outs that look alike come from different tables or passages of the source.

What was measured:
Format in all cases: cell-based
hKir2.1 = biological target: T1, hKir2.1 (Homo sapiens, UniProt P63252); assay: Patch clamp electrophysiology (QPatch CiPA), hKir2.1; conditions: for IC50: Antagonist, read-out: Estimated IC50
T1 construct: Eurofins
T1 sequence (P63252 1-427): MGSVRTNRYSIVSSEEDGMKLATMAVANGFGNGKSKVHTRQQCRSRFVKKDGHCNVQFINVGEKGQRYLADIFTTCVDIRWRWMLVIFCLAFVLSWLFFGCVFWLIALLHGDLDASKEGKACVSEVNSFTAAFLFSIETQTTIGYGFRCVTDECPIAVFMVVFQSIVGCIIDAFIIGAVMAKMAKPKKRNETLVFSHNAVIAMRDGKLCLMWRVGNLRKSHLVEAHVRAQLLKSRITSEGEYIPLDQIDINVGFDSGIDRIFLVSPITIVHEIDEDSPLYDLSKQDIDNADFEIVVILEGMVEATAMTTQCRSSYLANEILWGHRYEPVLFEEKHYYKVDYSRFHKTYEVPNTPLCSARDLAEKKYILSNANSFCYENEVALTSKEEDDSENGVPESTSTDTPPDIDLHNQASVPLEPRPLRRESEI
Method: Replated hiPSC-CMs were loaded with a fluorescent calcium dye and calcium transients were recorded before and after peptide addition.

hKCNQ1 /mink = biological target: T2, hKCNQ1 /mink (Homo sapiens, UniProt P51787); assay: Patch clamp electrophysiology (QPatch), hKCNQ1/mink
T2 construct: Eurofins

hKv4.3/hKChIP2 = biological target: T3, hKv4.3/hKChIP2 (Homo sapiens, UniProt Q9UK17); assay: Patch clamp electrophysiology (QPatch CiPA), hKv4.3/hKChIP2; conditions: for IC50: Antagonist, read-out: Estimated IC50
T3 construct: Eurofins
T3 sequence (Q9UK17 1-655): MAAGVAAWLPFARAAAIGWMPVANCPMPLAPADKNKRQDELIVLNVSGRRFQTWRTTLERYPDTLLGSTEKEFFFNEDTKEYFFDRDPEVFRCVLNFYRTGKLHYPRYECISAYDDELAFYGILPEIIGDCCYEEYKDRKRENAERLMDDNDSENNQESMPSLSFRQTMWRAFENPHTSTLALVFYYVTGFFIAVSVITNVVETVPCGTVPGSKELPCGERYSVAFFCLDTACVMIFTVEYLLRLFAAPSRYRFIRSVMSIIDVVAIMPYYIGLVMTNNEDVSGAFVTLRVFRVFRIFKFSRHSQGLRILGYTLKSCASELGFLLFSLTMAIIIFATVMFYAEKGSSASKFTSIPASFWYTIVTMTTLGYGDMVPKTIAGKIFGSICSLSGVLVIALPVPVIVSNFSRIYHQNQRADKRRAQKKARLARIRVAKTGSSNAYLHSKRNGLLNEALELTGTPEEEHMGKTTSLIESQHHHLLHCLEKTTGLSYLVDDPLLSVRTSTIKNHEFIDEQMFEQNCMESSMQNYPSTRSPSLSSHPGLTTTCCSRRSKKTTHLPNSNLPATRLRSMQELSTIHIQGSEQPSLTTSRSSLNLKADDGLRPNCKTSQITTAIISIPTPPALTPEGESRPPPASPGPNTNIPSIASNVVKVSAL
T3 sequence (Q9NS61 1-270 partner): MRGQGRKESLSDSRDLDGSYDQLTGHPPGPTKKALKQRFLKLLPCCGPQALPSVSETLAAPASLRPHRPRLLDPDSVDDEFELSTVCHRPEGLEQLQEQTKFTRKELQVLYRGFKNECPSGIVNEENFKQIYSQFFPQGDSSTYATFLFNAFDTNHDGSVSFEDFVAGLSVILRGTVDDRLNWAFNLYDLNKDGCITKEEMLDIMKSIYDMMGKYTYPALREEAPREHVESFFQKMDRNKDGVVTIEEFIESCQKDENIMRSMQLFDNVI

hCav1.2 = biological target: T4, hCav1.2 (Homo sapiens, UniProt Q13936); assay: Patch clamp electrophysiology (QPatch CiPA), hCav1.2
T4 construct: Eurofins

hNav1.5 = biological target: T5, hNav1.5 (Homo sapiens, UniProt Q14524); assay: Patch clamp electrophysiology (QPatch CiPA), hNav1.5
T5 construct: Eurofins

[1] = End, read-out: % inhibition mean
[2] = Peak, read-out: % inhibition mean
[3] = Peak, read-out: % inhibition n1
[4] = Peak, read-out: % inhibition n2

T4 sequence (Q13936 whole entry): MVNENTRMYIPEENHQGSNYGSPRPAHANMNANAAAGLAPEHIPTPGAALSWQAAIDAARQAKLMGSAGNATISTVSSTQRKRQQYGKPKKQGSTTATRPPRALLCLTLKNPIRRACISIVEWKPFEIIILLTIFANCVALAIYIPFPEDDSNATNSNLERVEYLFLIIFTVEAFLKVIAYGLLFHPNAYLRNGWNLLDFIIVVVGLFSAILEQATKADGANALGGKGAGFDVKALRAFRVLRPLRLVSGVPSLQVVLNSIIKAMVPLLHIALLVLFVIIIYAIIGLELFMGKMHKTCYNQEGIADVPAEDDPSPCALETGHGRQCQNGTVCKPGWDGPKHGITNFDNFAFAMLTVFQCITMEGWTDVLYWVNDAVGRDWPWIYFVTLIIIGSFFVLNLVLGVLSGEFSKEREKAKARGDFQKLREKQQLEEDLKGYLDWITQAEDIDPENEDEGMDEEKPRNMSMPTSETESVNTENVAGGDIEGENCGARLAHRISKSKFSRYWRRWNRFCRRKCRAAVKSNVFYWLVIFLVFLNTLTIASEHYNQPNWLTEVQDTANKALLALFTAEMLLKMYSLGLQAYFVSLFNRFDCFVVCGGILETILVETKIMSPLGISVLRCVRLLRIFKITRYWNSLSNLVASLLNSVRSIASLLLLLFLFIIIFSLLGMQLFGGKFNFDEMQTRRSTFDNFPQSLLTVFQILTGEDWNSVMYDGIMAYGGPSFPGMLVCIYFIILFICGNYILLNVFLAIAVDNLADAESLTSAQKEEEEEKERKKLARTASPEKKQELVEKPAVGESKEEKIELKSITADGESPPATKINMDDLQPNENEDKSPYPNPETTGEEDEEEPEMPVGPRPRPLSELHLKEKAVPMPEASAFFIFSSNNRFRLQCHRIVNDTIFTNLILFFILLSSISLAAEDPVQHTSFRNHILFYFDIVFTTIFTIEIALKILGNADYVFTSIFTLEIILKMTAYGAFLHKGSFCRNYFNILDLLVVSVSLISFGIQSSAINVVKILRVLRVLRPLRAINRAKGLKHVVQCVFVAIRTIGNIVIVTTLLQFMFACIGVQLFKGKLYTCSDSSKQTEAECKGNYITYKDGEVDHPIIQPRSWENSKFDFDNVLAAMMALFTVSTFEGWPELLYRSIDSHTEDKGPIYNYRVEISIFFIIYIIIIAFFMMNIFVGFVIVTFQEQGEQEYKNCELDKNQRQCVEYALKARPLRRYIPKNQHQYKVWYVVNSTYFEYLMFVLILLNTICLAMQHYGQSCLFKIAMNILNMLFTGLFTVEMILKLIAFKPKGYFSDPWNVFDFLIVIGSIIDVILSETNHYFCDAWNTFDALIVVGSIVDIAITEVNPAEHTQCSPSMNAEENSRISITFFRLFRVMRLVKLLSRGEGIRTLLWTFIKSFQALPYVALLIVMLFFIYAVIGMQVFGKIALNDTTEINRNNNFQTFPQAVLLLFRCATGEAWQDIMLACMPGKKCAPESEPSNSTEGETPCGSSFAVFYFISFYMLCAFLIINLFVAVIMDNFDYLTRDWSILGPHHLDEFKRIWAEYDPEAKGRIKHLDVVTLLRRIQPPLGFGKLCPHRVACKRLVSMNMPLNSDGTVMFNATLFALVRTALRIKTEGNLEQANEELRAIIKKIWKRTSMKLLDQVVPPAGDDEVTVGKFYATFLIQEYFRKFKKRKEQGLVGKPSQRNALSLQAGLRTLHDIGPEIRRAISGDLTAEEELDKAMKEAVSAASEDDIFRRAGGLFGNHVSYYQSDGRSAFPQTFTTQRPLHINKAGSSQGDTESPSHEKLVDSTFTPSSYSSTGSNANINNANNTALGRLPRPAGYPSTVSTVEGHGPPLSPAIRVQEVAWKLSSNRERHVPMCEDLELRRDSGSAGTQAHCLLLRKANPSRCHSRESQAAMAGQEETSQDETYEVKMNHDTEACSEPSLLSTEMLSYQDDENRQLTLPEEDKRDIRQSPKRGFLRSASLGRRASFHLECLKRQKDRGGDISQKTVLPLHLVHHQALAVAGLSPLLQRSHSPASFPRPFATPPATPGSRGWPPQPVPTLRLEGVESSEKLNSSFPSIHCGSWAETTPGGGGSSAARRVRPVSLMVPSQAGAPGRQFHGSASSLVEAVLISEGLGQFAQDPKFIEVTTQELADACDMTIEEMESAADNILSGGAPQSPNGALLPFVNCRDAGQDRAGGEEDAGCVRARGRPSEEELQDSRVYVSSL
T4 sequence (Q08289 whole entry partner): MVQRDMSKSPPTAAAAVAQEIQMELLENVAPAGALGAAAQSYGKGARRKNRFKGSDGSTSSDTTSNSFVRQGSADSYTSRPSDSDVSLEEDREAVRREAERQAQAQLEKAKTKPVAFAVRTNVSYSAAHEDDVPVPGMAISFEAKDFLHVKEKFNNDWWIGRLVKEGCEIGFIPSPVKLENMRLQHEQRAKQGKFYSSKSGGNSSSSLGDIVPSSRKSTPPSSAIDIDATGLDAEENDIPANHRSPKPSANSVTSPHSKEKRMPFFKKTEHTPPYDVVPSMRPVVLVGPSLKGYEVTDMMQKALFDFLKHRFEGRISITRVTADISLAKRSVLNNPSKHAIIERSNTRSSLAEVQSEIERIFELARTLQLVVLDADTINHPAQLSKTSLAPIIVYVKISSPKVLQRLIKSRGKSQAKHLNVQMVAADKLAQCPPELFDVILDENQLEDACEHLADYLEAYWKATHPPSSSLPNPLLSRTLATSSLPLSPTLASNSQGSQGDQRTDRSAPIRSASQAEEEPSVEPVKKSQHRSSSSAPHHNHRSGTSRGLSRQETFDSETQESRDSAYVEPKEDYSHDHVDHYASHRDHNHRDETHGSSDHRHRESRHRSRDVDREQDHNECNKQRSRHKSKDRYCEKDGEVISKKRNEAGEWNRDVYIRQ
T4 sequence (P54289 25-956 partner limits assumed): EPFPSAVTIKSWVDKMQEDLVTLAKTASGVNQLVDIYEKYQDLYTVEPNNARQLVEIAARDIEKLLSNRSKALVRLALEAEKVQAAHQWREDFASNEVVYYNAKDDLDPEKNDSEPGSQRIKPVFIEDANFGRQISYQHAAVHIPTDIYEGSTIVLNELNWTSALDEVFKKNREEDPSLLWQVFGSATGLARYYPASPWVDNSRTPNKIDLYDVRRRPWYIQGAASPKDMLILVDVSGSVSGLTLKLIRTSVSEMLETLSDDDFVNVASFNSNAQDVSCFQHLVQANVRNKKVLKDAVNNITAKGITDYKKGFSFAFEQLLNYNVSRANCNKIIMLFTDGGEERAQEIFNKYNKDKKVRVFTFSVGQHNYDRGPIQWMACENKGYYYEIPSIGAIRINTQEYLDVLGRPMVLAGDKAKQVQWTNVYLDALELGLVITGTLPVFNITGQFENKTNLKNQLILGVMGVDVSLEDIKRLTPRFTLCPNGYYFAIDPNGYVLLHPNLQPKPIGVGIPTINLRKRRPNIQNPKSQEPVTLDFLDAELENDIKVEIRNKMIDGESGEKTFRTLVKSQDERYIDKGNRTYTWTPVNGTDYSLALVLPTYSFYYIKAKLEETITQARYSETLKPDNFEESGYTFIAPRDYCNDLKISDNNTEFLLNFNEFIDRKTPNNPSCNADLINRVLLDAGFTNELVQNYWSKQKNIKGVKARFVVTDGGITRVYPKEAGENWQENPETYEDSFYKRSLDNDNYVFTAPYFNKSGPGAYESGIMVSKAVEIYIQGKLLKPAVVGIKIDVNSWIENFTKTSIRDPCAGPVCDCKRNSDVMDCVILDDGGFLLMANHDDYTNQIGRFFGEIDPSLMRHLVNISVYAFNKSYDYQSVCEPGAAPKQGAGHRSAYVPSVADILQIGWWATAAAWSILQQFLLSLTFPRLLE
T4 sequence (P54289 957-1103 partner limits assumed): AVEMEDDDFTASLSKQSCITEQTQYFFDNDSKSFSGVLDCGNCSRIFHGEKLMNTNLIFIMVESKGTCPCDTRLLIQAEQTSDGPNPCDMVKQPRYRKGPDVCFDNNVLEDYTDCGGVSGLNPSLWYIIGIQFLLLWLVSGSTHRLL
T2 sequence (P51787 whole entry): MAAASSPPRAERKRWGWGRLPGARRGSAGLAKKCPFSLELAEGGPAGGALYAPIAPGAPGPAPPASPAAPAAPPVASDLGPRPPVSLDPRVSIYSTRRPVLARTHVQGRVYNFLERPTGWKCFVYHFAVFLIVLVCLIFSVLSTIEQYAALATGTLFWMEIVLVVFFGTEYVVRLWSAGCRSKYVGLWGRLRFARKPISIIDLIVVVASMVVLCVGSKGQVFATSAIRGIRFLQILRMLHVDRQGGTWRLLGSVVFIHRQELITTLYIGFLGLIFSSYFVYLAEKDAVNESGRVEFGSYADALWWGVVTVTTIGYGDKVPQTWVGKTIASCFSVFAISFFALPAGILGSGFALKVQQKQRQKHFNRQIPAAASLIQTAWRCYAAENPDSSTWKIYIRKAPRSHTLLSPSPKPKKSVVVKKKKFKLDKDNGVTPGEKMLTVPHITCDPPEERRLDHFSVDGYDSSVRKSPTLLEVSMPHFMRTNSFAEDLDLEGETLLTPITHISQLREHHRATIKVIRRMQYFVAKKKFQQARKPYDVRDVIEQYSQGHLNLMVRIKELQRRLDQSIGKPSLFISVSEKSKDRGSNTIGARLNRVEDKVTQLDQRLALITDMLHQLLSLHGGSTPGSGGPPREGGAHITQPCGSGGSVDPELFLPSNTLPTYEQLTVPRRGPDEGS

## [Ba+2].[Cl-].[Cl-] [Barium, Barium Chloride]
hKir2.1; End
  IC50: 3.6 µM
hKir2.1; Peak
  IC50: 62.3 µM
hKir2.1; End, 0.3 μM
  % inhibition mean: 7.01%
  % inhibition n1: 6.49%
  % inhibition n2: 7.53%
hKir2.1; End, 1 μM
  % inhibition mean: 18.29%
  % inhibition n1: 19.93%
  % inhibition n2: 16.65%
hKir2.1; End, 3 μM
  % inhibition mean: 41.38%
  % inhibition n1: 39.87%
  % inhibition n2: 42.88%
hKir2.1; End, 10 μM
  % inhibition mean: 80.72%
  % inhibition n1: 79.79%
  % inhibition n2: 81.66%
hKir2.1; End, 30 μM
  % inhibition mean: 93.28%
  % inhibition n1: 93.64%
  % inhibition n2: 92.93%
hKir2.1; End, 100 μM
  % inhibition mean: 98.46%
  % inhibition n1: 98.46%
  % inhibition n2: 98.47%
hKir2.1; Peak, 0.3 μM
  % inhibition mean: 2.37%
  % inhibition n1: 1.78%
  % inhibition n2: 2.96%
hKir2.1; Peak, 1 μM
  % inhibition mean: 6.45%
  % inhibition n1: 7.99%
  % inhibition n2: 4.90%
hKir2.1; Peak, 3 μM
  % inhibition mean: 12.57%
  % inhibition n1: 14.88%
  % inhibition n2: 10.25%
hKir2.1; Peak, 10 μM
  % inhibition mean: 13.31%
  % inhibition n1: 16.68%
  % inhibition n2: 9.94%
hKir2.1; Peak, 30 μM
  % inhibition mean: 31.99%
  % inhibition n1: 38.78%
  % inhibition n2: 25.19%
hKir2.1; Peak, 100 μM
  % inhibition mean: 62.64%
  % inhibition n1: 63.60%
  % inhibition n2: 61.68%

## CCS(=O)(=O)N(C)[C@H]1c2cc(C#N)ccc2OC(C)(C)[C@@H]1O (racemic) [Chromanol 293B]
hKCNQ1 /mink; 0.3 μM
  % inhibition mean: 4.24%
  % inhibition n1: 1.35%
  % inhibition n2: 7.13%
hKCNQ1 /mink; 1 µM
  % inhibition mean: 12.25%
  % inhibition n1: 9.45%
  % inhibition n2: 15.04%
hKCNQ1 /mink; 3 μM
  % inhibition mean: 22.85%
  % inhibition n1: 21.34%
  % inhibition n2: 24.36%
hKCNQ1 /mink; 10 µM
  % inhibition mean: 40.28%
  % inhibition n1: 39.37%
  % inhibition n2: 41.20%
hKCNQ1 /mink; 30 μM
  % inhibition mean: 73.92%
  % inhibition n1: 74.46%
  % inhibition n2: 73.39%
hKCNQ1 /mink; 100 µM
  % inhibition mean: 95.80%
  % inhibition n1: 96.45%
  % inhibition n2: 95.16%
hKCNQ1 /mink; read-out: Estimated IC50
  IC50: 11.5 µM

## O=C(NCC1CCCCN1)c1cc(OCC(F)(F)F)ccc1OCC(F)(F)F (centres unmarked) [Flecainide]
hKv4.3/hKChIP2; End
  IC50: 10 µM
hKv4.3/hKChIP2; Peak
  IC50: 22.5 µM
hKv4.3/hKChIP2; [1]
  inhibition at 0.03 µM: 6.93%
  inhibition at 0.3 µM: 7.17%
  inhibition at 3 µM: 26.8%
  inhibition at 30 µM: 71.8%
  inhibition at 300 µM: 90.5%
hKv4.3/hKChIP2; End, read-out: % inhibition n1
  inhibition at 0.03 µM: 5.29%
  inhibition at 0.3 µM: 2.84%
  inhibition at 3 µM: 25.6%
  inhibition at 30 µM: 69.2%
  inhibition at 300 µM: 90%
hKv4.3/hKChIP2; End, read-out: % inhibition n2
  inhibition at 0.03 µM: 8.57%
  inhibition at 0.3 µM: 11.5%
  inhibition at 3 µM: 27.9%
  inhibition at 30 µM: 74.4%
  inhibition at 300 µM: 91%
hKv4.3/hKChIP2; [2]
  inhibition at 0.03 µM: 9.2%
  inhibition at 0.3 µM: 8.4%
  inhibition at 3 µM: 12.6%
  inhibition at 30 µM: 55.2%
  inhibition at 300 µM: 97.4%
hKv4.3/hKChIP2; [3]
  inhibition at 0.03 µM: 7.41%
  inhibition at 0.3 µM: 4.05%
  inhibition at 3 µM: 10.6%
  inhibition at 30 µM: 57.5%
  inhibition at 300 µM: 97.4%
hKv4.3/hKChIP2; [4]
  inhibition at 0.03 µM: 11%
  inhibition at 0.3 µM: 12.8%
  inhibition at 3 µM: 14.5%
  inhibition at 30 µM: 53%
  inhibition at 300 µM: 97.3%

## COC(=O)C1=C(C)NC(C)=C(C(=O)OC)C1c1ccccc1[N+](=O)[O-] [Nifedipine]
hCav1.2; read-out: % inhibition mean
  inhibition at 0.001 µM: 15.1%
  inhibition at 0.01 µM: 34.8%
  inhibition at 0.1 µM: 55.7%
  inhibition at 1 µM: 61%
  inhibition at 10 µM: 83.8%
  inhibition at 100 µM: 94.8%
hCav1.2; read-out: % inhibition n1
  inhibition at 0.001 µM: 21.6%
  inhibition at 0.01 µM: 38.2%
  inhibition at 0.1 µM: 53.1%
  inhibition at 1 µM: 56.8%
  inhibition at 10 µM: 81.4%
  inhibition at 100 µM: 95.2%
hCav1.2; read-out: % inhibition n2
  inhibition at 0.001 µM: 8.54%
  inhibition at 0.01 µM: 31.5%
  inhibition at 0.1 µM: 58.2%
  inhibition at 1 µM: 65.2%
  inhibition at 10 µM: 86.1%
  inhibition at 100 µM: 94.5%

## CCCCNc1ccc(C(=O)OCCN(C)C)cc1 [Tetracaine]
hNav1.5; read-out: % inhibition mean
  inhibition at 0.03 µM: 6.44%
  inhibition at 0.3 µM: 27.2%
  inhibition at 3 µM: 71.3%
  inhibition at 30 µM: 91.3%
  inhibition at 300 µM: 95.9%
hNav1.5; read-out: % inhibition n1
  inhibition at 0.03 µM: 6.26%
  inhibition at 0.3 µM: 28.8%
  inhibition at 3 µM: 74.2%
  inhibition at 30 µM: 93.8%
  inhibition at 300 µM: 96.6%
hNav1.5; read-out: % inhibition n2
  inhibition at 0.03 µM: 6.62%
  inhibition at 0.3 µM: 25.6%
  inhibition at 3 µM: 68.5%
  inhibition at 30 µM: 88.8%
  inhibition at 300 µM: 95.2%
